Results: PubChem BioAssay (NCI)
Where “and” joins values, the source holds several entries; their conditions need not be identical. Equal entries are not always repeated.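 Growth conditions: 96-well plates. Treatment: test compound, 48 hours, 5 concentrations. Analysis: linear interpolation between bracketing concentrations; unreached endpoints set to highest concentration. GI50 = concentration required for 50% inhibition of growth. TGI marks complete inhibition of growth.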

Experiments:
Test in all cases: NCI-60 cell line screen, 48 h
[1] = tested on: CAKI-1 renal
[2] = tested on: K-562 leukemia
[3] = tested on: SN12C renal
[4] = tested on: NCI/ADR-RES ovarian
[5] = tested on: NCI-H522 lung
[6] = tested on: MOLT-4 leukemia
[7] = tested on: NCI-H23 lung
[8] = tested on: RXF 393 renal
[9] = tested on: MCF7 breast
[10] = tested on: SK-OV-3 ovarian

Row | Structure (SMILES) | GI50 [1] | TGI [1] | GI50 [2] | TGI [2] | GI50 [3] | TGI [3] | GI50 [4] | TGI [4] | GI50 [5] | TGI [5] | GI50 [6] | TGI [6] | GI50 [7] | TGI [7] | GI50 [8] | TGI [8] | GI50 [9] | TGI [9] | GI50 [10] | TGI [10]
1 | COc1cc(Cl)cc(-c2nn(-c3cccc(NC(=O)Nc4cc(C(F)(F)F)cc(C(F)(F)F)c4)c3)cc2-c2ccncc2)c1 | 0.426 µM | 4.4 µM | 0.339 µM | 8.09 µM | 0.427 µM | 3.05 µM | 0.778 µM | 9.66 µM | 0.302 µM | 1.32 µM | 0.33 µM | 1.92 µM | 0.332 µM | 2.01 µM | 1.38 µM | 4.09 µM | 0.439 µM | 9.3 µM | 1.22 µM | 6.68 µM
2 | O=S(=O)(c1cccc2c(Cl)cccc12)N1CCCNCC1 | 17.3 µM | 32.6 µM | 12.7 µM | 25.3 µM | 12.2 µM | 24.6 µM | 13.7 µM | 26.6 µM | 19.7 µM | 37.1 µM | 12.8 µM | 26 µM | 13.8 µM | 27.1 µM | 2.88 µM | 22.4 µM | 24.5 µM | 50.8 µM | 15.7 µM | 29.1 µM
3 | CN1C(=O)C(CC(=O)O)NC1=S (stereo not given) |  | > 100 µM |  | > 100 µM |  | > 100 µM |  | > 100 µM |  | > 100 µM |  | > 100 µM |  | > 100 µM |  | > 100 µM |  | > 100 µM |  | > 100 µM
4 | O=C(Nc1ccc2[nH]c(=S)sc2c1)Nc1ccccc1F | 2.71 µM | 14.6 µM | 28.6 µM | > 100 µM | 41.9 µM | > 100 µM | 21.9 µM | > 100 µM | 10.3 µM | 38.4 µM | 22.4 µM | > 100 µM | 35.8 µM | > 100 µM | 54.5 µM | > 100 µM | 36.7 µM | > 100 µM | > 100 µM | > 100 µM
5 | O=C(O)c1cc(-c2ccncc2)nc2ccccc12 |  | > 100 µM |  | > 100 µM |  | > 100 µM |  | > 100 µM |  | > 100 µM |  | > 100 µM |  | > 100 µM |  | > 100 µM |  | > 100 µM |  | > 100 µM
6 | NC1=C(c2nc(-c3ccccc3)cs2)C(c2ccc(Br)cc2)c2c(c3ccccc3oc2=O)O1 (stereo not given) | 70 µg/mL | > 150 µg/mL | 77.1 µg/mL | > 150 µg/mL | 85.9 µg/mL | > 150 µg/mL | > 150 µg/mL | > 150 µg/mL | 47.1 µg/mL | > 150 µg/mL | 33 µg/mL | 118 µg/mL | 71 µg/mL | > 150 µg/mL | 40.7 µg/mL | 141 µg/mL | > 150 µg/mL | > 150 µg/mL | 60.1 µg/mL | > 150 µg/mL
7 | O=c1oc2cc(N=Cc3ccc4c(c3)OCO4)ccc2c2ccccc12 |  | > 100 µM |  | > 100 µM |  | > 100 µM |  | > 100 µM |  | > 100 µM |  | > 100 µM |  | > 100 µM |  | 67.2 µM |  | > 100 µM |  | > 100 µM
8 | O=C1C=CC[C@H](/C=C/c2ccccc2)O1 | 1.05 µM | 14.4 µM |  | > 100 µM | 3.55 µM | 17.9 µM | 3.12 µM | > 23.2 µM | 2.72 µM | > 25.4 µM |  | > 100 µM | 2.14 µM | 10.7 µM | 5.23 µM | > 100 µM | 1.65 µM | > 37.8 µM | 5.54 µM | 99.4 µM
9 | COc1cc(NC(=O)CSc2nc3ccc(C)cc3c(=O)n2Cc2ccccc2)cc(OC)c1OC | 5.08 µM | > 100 µM | > 100 µM | > 100 µM | 25.4 µM | > 100 µM | 8.97 µM | > 100 µM | 4.63 µM | 47 µM | > 100 µM | > 100 µM | 8.3 µM | 42.3 µM | 2.24 µM | 8.23 µM | 9.98 µM | > 100 µM | 3.06 µM | 8.58 µM
10 | COc1cc2c(cc1OCCCCCOc1ccc(-n3c(C)nc4ccccc4c3=O)cc1)N=C[C@@H]1CCCN1C2=O | 0.275 µM | 1.02 µM | 0.164 µM |  | 0.264 µM | 3.38 µM | 1.96 µM | 6.31 µM | 0.204 µM | 0.958 µM | 0.196 µM | 0.5 µM | 0.226 µM | 0.528 µM | 0.21 µM | 0.39 µM | 0.271 µM | 1.3 µM | 0.41 µM | 1.89 µM
11 | COc1ccccc1N1CCN(CCc2c[nH]c3cc4c(cc23)OCO4)CC1 | 18.5 µM | 60.8 µM | 24.4 µM | > 100 µM | 23.5 µM | > 100 µM | 26.4 µM | > 100 µM | 44.2 µM | > 100 µM | 38.8 µM | > 100 µM | 23.4 µM | > 100 µM | 17.9 µM | 92.9 µM | 33.3 µM | > 100 µM | 81.6 µM | > 100 µM
12 | CC1(O)CC(c2nc(-c3ccc4ccc(-c5ccccc5)nc4c3)c3c(N)nccn23)C1 (stereo not given) | 4.58 µM and 2.16 µM | > 100 µM |  | > 100 µM | 9.64 µM and > 10 µM | > 80.9 µM | 10.6 µM and > 10 µM | 96.9 µM and > 10 µM | 12 µM and > 10 µM | 35.5 µM and > 10 µM | 7.16 µM and 3.72 µM | > 80.1 µM | 8.83 µM and 5.03 µM | > 80.8 µM | 3.71 µM and 4.96 µM | 13.7 µM and > 10 µM | 0.122 µM and 0.332 µM | > 43.3 µM | 10.4 µM and 9.84 µM | > 100 µM
13 | Cc1cc(NCc2cc(Nc3ccnc4cc(Cl)ccc34)ccc2F)nc(N2CCN(C)CC2)n1 | 1.67 µM | 4 µM | 0.386 µM | 2.11 µM | 2.32 µM | 8.31 µM | 2.36 µM | 7.72 µM | 2.22 µM | 4.79 µM | 1.39 µM | 8.17 µM | 2.1 µM | 6.54 µM | 1.26 µM | 2.94 µM | 1.94 µM | 5.65 µM | 3.31 µM | 9.88 µM
14 | CN(C)CC1C(=O)O[C@H]2[C@H]1CC/C(COC(=O)c1cc3ccccc3[nH]1)=C\CC[C@@]1(C)O[C@@H]21 (stereo not given in full) | 1.31 µM | 2.85 µM | 1.14 µM | 6.11 µM | 2.2 µM | 6.08 µM | 1.76 µM | 4.6 µM | 1.32 µM | 3.05 µM | 1.98 µM | 7.32 µM | 2.39 µM | 8.3 µM | 1.4 µM | 2.89 µM | 1.01 µM | 4.55 µM | 19.9 µM | 39.3 µM
15 | CNCCNc1c2c(c(NCCNC)c3[nH]ccc13)C(=O)c1ccccc1C2=O | 0.278 µM | 1.15 µM | 0.126 µM | > 100 µM | < 0.0257 µM | 0.097 µM | 1.26 µM | 8.21 µM | 0.117 µM | 0.339 µM | < 0.0261 µM |  | 0.197 µM | 0.558 µM | 0.214 µM | 0.752 µM | 0.154 µM | 1.19 µM | 5.67 µM | 13.3 µM
